Measured values taken from the Kinase Knowledgebase extract (Sharma et al. 2016).
pKi: −log10 of the molar value.

Tests used:
PIK3CG (human) = PIK3CG (human) (UniProt P48736); assay: Assessment of PIK3CG Kinase Activity
PIK3CA (human) = PIK3CA (human) (UniProt P42336); assay: Assessment of PIK3CA Kinase Activity
Sequence of PIK3CA (human) (P42336 whole entry, looked up): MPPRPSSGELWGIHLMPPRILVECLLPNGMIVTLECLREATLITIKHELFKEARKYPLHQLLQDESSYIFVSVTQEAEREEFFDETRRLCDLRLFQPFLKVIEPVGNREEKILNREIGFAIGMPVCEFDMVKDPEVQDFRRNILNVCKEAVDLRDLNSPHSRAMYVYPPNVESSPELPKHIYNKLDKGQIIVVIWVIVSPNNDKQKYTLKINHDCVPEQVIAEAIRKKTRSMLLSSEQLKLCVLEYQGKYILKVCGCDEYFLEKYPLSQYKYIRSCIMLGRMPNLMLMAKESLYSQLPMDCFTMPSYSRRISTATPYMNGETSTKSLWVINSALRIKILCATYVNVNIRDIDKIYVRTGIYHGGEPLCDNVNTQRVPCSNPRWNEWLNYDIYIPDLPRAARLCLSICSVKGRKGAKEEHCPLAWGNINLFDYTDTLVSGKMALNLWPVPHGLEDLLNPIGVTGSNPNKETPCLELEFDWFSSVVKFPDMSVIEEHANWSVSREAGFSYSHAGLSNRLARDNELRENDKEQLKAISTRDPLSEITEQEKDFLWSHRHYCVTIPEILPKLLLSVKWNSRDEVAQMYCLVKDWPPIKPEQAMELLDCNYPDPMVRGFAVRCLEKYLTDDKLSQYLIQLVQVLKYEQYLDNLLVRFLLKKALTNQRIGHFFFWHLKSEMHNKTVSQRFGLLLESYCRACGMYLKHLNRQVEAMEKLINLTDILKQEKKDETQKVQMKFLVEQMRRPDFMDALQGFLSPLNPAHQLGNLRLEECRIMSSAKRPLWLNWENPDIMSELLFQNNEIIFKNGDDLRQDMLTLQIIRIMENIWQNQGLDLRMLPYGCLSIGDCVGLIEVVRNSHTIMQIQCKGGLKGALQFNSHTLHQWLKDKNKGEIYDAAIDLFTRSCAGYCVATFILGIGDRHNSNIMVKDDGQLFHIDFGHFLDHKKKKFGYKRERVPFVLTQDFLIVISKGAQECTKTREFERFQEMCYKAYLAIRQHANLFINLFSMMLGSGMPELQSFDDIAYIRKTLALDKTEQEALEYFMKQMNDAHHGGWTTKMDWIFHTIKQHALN

Sequence of PIK3CG (human) (P48736 whole entry, looked up): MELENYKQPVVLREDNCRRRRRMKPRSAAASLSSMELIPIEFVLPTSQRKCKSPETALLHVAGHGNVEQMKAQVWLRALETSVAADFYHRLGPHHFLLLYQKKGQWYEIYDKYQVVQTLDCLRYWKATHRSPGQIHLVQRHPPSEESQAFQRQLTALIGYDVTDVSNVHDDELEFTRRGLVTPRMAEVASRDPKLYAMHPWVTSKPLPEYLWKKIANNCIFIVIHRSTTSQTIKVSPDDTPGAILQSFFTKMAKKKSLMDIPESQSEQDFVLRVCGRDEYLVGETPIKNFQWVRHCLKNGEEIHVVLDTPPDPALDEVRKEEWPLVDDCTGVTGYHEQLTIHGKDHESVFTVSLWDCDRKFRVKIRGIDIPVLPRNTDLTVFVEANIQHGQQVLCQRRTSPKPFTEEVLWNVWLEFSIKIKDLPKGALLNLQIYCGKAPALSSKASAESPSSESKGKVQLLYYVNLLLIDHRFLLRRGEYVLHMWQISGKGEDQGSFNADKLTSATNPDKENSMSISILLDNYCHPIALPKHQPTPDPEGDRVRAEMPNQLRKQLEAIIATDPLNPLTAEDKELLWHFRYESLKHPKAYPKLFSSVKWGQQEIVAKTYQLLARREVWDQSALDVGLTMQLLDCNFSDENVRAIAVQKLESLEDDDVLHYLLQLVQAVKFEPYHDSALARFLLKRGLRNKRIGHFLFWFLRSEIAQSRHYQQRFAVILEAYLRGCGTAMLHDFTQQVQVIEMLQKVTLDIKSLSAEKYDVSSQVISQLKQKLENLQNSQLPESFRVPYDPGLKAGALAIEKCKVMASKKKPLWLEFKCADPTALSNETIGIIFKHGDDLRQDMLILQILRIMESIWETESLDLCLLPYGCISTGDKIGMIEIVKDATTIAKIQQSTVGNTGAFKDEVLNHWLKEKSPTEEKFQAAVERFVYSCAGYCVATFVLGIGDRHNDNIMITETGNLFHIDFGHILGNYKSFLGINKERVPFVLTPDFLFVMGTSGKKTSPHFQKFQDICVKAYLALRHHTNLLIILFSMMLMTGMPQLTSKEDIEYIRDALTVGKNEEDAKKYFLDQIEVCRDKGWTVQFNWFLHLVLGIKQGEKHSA

pKi (PIK3CG (human)) | pKi (PIK3CA (human)) | Compound
> 7.00 |  | COc1cncc(-c2ccc3nc(Nc4ccccn4)sc3c2)c1
> 7.00 | > 7.00 | COc1ncc(-c2ccc3nc(Nc4cnccn4)sc3c2)cc1OC(C)C
> 7.00 |  | CCCCNS(=O)(=O)c1cccc(Nc2nc3ccc(-c4cncc(OC)c4)cc3s2)c1
> 7.00 | > 7.00 | COc1cc(-c2ccc3nc(Nc4ccn(C)n4)sc3c2)cnc1OC
> 7.00 | > 7.00 | CNC(=O)Cn1cc(Nc2nc3ccc(-c4cncc(C(F)(F)F)c4)cc3s2)cn1
> 7.00 | > 7.00 | COc1cncc(-c2ccc3nc(Nc4cc[nH]n4)sc3c2)c1
> 7.00 | > 7.00 | FC(F)(F)c1cncc(-c2ccc3nc(Nc4cnn(CC5CCCO5)c4)sc3c2)c1 (centres undefined)
> 7.00 |  | COc1cncc(-c2ccc3nc(Nc4nc(C)cs4)sc3c2)c1
> 7.00 | > 7.00 | COc1cc(-c2ccc3nc(Nc4nccc(C)n4)sc3c2)cnc1OC
> 7.00 | > 7.00 | O=C(O)Cn1cc(Nc2nc3ccc(-c4cncc(C(F)(F)F)c4)cc3s2)cn1
> 7.00 |  | Cc1ccc(Nc2nc3ccc(-c4cncc(C(F)(F)F)c4)cc3s2)nn1
> 7.00 |  | Cn1cc(Nc2nc3ccc(-c4cncc(C(F)(F)F)c4)cc3s2)cn1
> 7.00 | > 7.00 | CCOc1ncc(-c2ccc3nc(Nc4cccnc4)sc3n2)cc1OC
> 7.00 |  | COc1cncc(-c2ccc3nc(Nc4cccc(NC(C)=O)c4)sc3c2)c1
> 7.00 | > 7.00 | COc1ncc(-c2ccc3nc(Nc4cnccn4)sc3n2)cc1OC(C)C
> 7.00 | > 7.00 | COc1cc(-c2ccc3nc(Nc4cnccn4)sc3c2)cnc1N
> 7.00 | > 7.00 | COc1cc(-c2ccc3nc(Nc4ccccn4)sc3c2)cnc1OC
 | > 7.00 | CCn1cc(Nc2nc3ccc(-c4cncc(C(F)(F)F)c4)cc3s2)cn1
> 7.00 | > 7.00 | COc1cc(-c2ccc3nc(Nc4cccc(C)n4)sc3c2)cnc1OC
> 7.00 |  | CCc1ncc(-c2ccc3nc(Nc4cnccn4)sc3c2)cc1OC
> 7.00 | > 7.00 | FC(F)(F)c1cncc(-c2ccc3nc(Nc4ccncn4)sc3c2)c1
> 7.00 | > 7.00 | CCCn1ccc(Nc2nc3ccc(-c4cnc(OC)c(OC)c4)cc3s2)n1
> 7.00 |  | COc1cncc(-c2ccc3nc(Nc4ccc(N(C)C(C)=O)cc4)sc3c2)c1

pKi (PIK3CG (human)) | pKi (PIK3CA (human)) | Compound
> 7.00 | > 7.00 | COc1cc(-c2ccc3nc(Nc4ncccn4)sc3c2)cnc1OC
> 7.00 | > 7.00 | CCOc1cc(-c2ccc3nc(Nc4cnccn4)sc3c2)cnc1OCC
> 7.00 | > 7.00 | CCOc1ncc(-c2ccc3nc(Nc4cnccn4)sc3n2)cc1OC
> 7.00 |  | COc1cncc(-c2ccc3nc(Nc4ccc5c(c4)N(C(C)=O)CC5)sc3c2)c1
> 7.00 | > 7.00 | COCCn1cc(Nc2nc3ccc(-c4cncc(C(F)(F)F)c4)cc3s2)cn1
> 7.00 |  | CCOc1cc(-c2ccc3nc(Nc4cccnc4)sc3n2)cnc1OCC
> 7.00 | > 7.00 | COc1cncc(-c2ccc3nc(Nc4cnccn4)sc3c2)c1
> 7.00 | > 7.00 | COc1ncc(-c2ccc3nc(Nc4cccnc4)sc3n2)cc1OC(C)C
> 7.00 | > 7.00 | COc1cncc(Nc2nc3ccc(-c4cnc(OC)c(OC)c4)cc3s2)n1
> 7.00 | > 7.00 | COc1cc(-c2ccc3nc(Nc4cnccn4)sc3c2)cnc1OC
> 7.00 |  | COc1cncc(-c2ccc3nc(Nc4nncs4)sc3c2)c1
 | > 7.00 | CCN(CC)C(=O)c1cccc(Nc2nc3ccc(-c4cncc(OC)c4)cc3s2)n1
> 7.00 | > 7.00 | COc1cncc(-c2ccc3nc(Nc4ccncn4)sc3c2)c1
> 7.00 |  | CNC(=O)Cc1ccc(Nc2nc3ccc(-c4cncc(OC)c4)cc3s2)cc1
> 7.00 | > 7.00 | CCOc1cc(-c2ccc3nc(Nc4cnccn4)sc3c2)cnc1OC
> 7.00 | > 7.00 | COc1cccc(Nc2nc3ccc(-c4cnc(OC)c(OC)c4)cc3s2)n1
 | > 7.00 | COc1cncc(-c2ccc3nc(Nc4cccc(CO)c4)sc3c2)c1
 | > 7.00 | FC(F)(F)c1cncc(-c2ccc3nc(Nc4cnccn4)sc3c2)c1
> 7.00 | > 7.00 | COc1cncc(-c2ccc3nc(Nc4nccs4)sc3c2)c1
> 7.00 |  | COc1cncc(-c2ccc3nc(Nc4cccnc4)sc3c2)c1
> 7.00 | > 7.00 | COc1cncc(-c2ccc3nc(Nc4ccn(C)n4)sc3c2)c1
> 7.00 | > 7.00 | COc1cncc(-c2ccc3nc(Nc4ccc5nc[nH]c5c4)sc3c2)c1
> 7.00 | > 7.00 | CCOc1cc(-c2ccc3nc(Nc4cnccn4)sc3n2)cnc1OCC

pKi (PIK3CG (human)) | pKi (PIK3CA (human)) | Compound
> 7.00 |  | COc1cncc(-c2ccc3nc(Nc4ccc(N)cc4)sc3c2)c1
> 7.00 | > 7.00 | COc1cc(-c2ccc3nc(Nc4nnc(C)s4)sc3c2)cnc1OC
> 7.00 | > 7.00 | COc1cc(-c2ccc3nc(Nc4cccnc4)sc3c2)cnc1OC
> 7.00 |  | CCN(CC)C(=O)c1cccc(Nc2nc3ccc(-c4cncc(OC)c4)cc3s2)c1
> 7.00 |  | FC(F)(F)c1cncc(-c2ccc3nc(Nc4cccnc4)sc3n2)c1
> 7.00 |  | COc1cc(-c2ccc3nc(Nc4cnccn4)sc3n2)cnc1OC
> 7.00 |  | Nc1ccc(Nc2nc3ccc(-c4cncc(C(F)(F)F)c4)cc3s2)cn1
> 7.00 | > 7.00 | COc1cc(-c2ccc3nc(Nc4ccncn4)sc3c2)cnc1OC
> 7.00 |  | COc1cncc(-c2ccc3nc(Nc4ccc(Cl)nn4)sc3c2)c1
> 7.00 | > 7.00 | COc1cc(-c2ccc3nc(Nc4ncc(C)s4)sc3c2)cnc1OC
> 7.00 | > 7.00 | CCOc1ncc(-c2ccc3nc(Nc4cnccn4)sc3c2)cc1OC
> 7.00 | > 7.00 | COc1cncc(-c2ccc3nc(Nc4cncc(C)n4)sc3c2)c1
> 7.00 | > 7.00 | COc1cc(-c2ccc3nc(Nc4cc[nH]n4)sc3c2)cnc1OC
> 7.00 |  | COc1cncc(-c2ccc3nc(Nc4cccc(S(C)(=O)=O)c4)sc3c2)c1
> 7.00 | > 7.00 | COc1cc(-c2ccc3nc(Nc4cnccn4)sc3c2)cnc1C
> 7.00 |  | COc1cncc(-c2ccc3nc(Nc4ccc(CC(N)=O)cc4)sc3c2)c1
> 7.00 |  | COc1cncc(-c2ccc3nc(Nc4cccc(C)n4)sc3c2)c1
> 7.00 |  | COc1cncc(-c2ccc3nc(Nc4cccnc4)sc3n2)c1
> 7.00 | > 7.00 | COc1cc(-c2ccc3nc(Nc4cccnc4)sc3n2)cnc1OC
> 7.00 | > 7.00 | CCOc1cncc(Nc2nc3ccc(-c4cnc(OC)c(OC)c4)cc3s2)n1
> 7.00 | > 7.00 | COc1cncc(-c2ccc3nc(Nc4ccc(C)nn4)sc3c2)c1
> 7.00 | > 7.00 | COc1cc(-c2ccc3nc(Nc4cncc(C)n4)sc3c2)cnc1OC
